Laboratory results as given in patent US5547674A, “Pharmaceutical preparations derived from European mistletoe” (priority 1995, dated 1996).

How the values were obtained:
[1] = test system: C3H Mammary adenocarcinoma 16/C; test: Growth of subcutaneous transplants of C3H mammary adenocarcinoma 16/C in B6C3F1 female mice; assay type: in vivo; conditions: i.p., 98 mg/kg, qd (1,7,14,21)
Experimental: (§1) The amount of protein in the alkaloidal and viscotoxin fractions were also determined to be within the required fingerprint ranges. Anticancer activities of T4GEN were studied in animals bearing subcutaneous transplants of C3H Mammary adenocarcinoma 16/C. This tumor is maintained as a lung framed tumor in C3H female mice. In this example, tumors (1×10^6 cells) were transplanted (S.C.) in 18-20 g B6C3F1 hybrid female mice. On the following day, the tumor beating animals were randomized and separated into different treatment groups (10 mice per group). There were 15 animals in the control group who received only physiological saline during the treatment periods. The treatments (i.p.) were staged 48 hours after the transplants and given for a duration of 14 days (daily single injections).Animals were weighed on days 5, 9 and 14 to assess toxic effects. Tumors were measured on day 21 post transplants and the results are represented as tumor weights using formula [formula] (l=length of tumor, w=width of tumor expressed in mm).

[2] = Weight change of tumor bearing B6C3F1 mice (toxic effects); assay type: in vivo; conditions: i.p., 98 mg/kg, qd (1,7,14,21)
Experimental: as §1

AIDS patients = conditions: human, in vivo; cited from earlier work
reverse transcriptase = conditions: cited from earlier work

Structure (SMILES) | Tumor Weight Inhibition [1] | Tumor Wts (day 21) ([1]; saline controls 0.27) | Tumor Free Animals (day 93) ([1]; saline controls 1/15) | Δ Wts (day 14) [2] | toxic side effects (AIDS patients) | inhibition of reverse transcriptase (reverse transcriptase)
O=c1[nH]cc(F)c(=O)[nH]1 [5FIuorouracil] | 100% | 0.00 | 0/6 | +1.77 g |  | 
Cc1cn([C@H]2C[C@H](N=[N+]=[N-])[C@@H](CO)O2)c(=O)[nH]c1=O [AZT, azidothymidine] |  |  |  |  | serious toxic side effects including immunosuppression | 
Nc1ccn([C@H]2CC[C@@H](CO)O2)c(=O)n1 [ddC, 2',3'-dideoxycytidine] |  |  |  |  | serious toxic side effects including immunosuppression | inhibit reverse transcriptase
OC[C@@H]1CC[C@H](n2cnc3c(O)ncnc32)O1 [ddI, 2',3'-dideoxyinosine] |  |  |  |  | serious toxic side effects including immunosuppression | inhibit reverse transcriptase
